Measured values taken from patent US20220117938A1, “COMBINATON THERAPY WITH A DON PRODRUG AND AN IMMUNE CHECKPOINT INHIBITOR” (DRACEN PHARMACEUTICALS, INC., priority 2019, published 2022).

Test system: MC38 tumors
Test: Anti-tumor efficacy of Compound 1 and Compound 3 by IV and SC routes in the MC38 model (Example 9)
Type: in vivo, mice
Description: Female C57BL/6 mice were inoculated subcutaneously in the right flank with MC38 cells for tumor development. Six days after tumor inoculation, mice with tumor sizes ranging from 52-97 mm^3 (average tumor size 71 mm^3) were selected and assigned into 10 groups using stratified randomization with 8 mice per group based upon their tumor volumes. The treatments were started from the day of randomization (defined as D0), Group 1 was treated with Vehicle control, SC qd×5 days on (Mon-Fri)×4 cycles; Group 2 was treated with Compound 1, 1.4 mpk SC, qd×5 days on (Mon-Fri)×4 cycles; Group 3 was treated with Compound 1, 7 mpk IV, biw (Mon, Thu)×4 cycles; Group 4 was treated with Compound 1, 14 mpk IV, biw (Mon, Thu)×4 cycles; Group 5 was treated with Compound 1, 14 mpk IV, qw (Mon)×4 cycles; Group 6 was treated with Compound 1, 21 mpk IV, qw (Mon)×4 cycles; Group 7 was treated with Compound 3, 1 mpk SC, qd 5 days on (Mon-Fri)×4 cycles; Group 8 was treated with Compound 3, 3 mpk SC, qd 5 days on (Mon-Fri)×4 cycles; Group 9 was treated with Compound 3, 9 mpk SC, qd 5 days on (Mon-Fri)×4 cycles; and Group 10 was treated with Compound 3, 7 mpk IV, tiw (Mon, Wed, Fri)×4 cycles. The tumor sizes were measured three times per week during the treatment. Survival was monitored with tumor volume exceeding 2000 mm^3 as endpoint. The entire study was terminated on D44 after start of the treatment. All treatments were well-tolerated without any adverse effects or significant body weight loss.

[1] = Group 7, 1 mpk SC qd Mon-Fri x4 cycles
[2] = Group 7, 1 mpk SC qd Mon-Fri x4 cycles, day 11
[3] = Group 8, 3 mpk SC qd Mon-Fri x4 cycles
[4] = Group 8, 3 mpk SC qd Mon-Fri x4 cycles, day 11
[5] = Group 9, 9 mpk SC qd Mon-Fri x4 cycles
[6] = Group 9, 9 mpk SC qd Mon-Fri x4 cycles, day 11
[7] = Group 10, 7 mpk IV tiw x4 cycles

Question: How did the ILS [1] turn out when CC(=O)N[C@@H](Cc1c[nH]c2ccccc12)C(=O)N[C@@H](CCC(=O)C=[N+]=[N-])C(=O)O [Compound 3, (S)-2-((S)-2-acetamido-3-(1H-indol-3-yl)propanamido)-6-diazo-5-oxohexanoic acid] was run?
Answer: 106.7%

Question: What about the MST [1] of the same compound?
Answer: 31 days

Question: And the “RTV at day 11” value [1]?
Answer: 2.22 ± 0.22

Question: And the “Tumor Size at day 11” value [1]?
Answer: 152 ± 10 mm^3

Question: What about the Tumor volume (Group 7, 1 mpk SC qd Mon-Fri x4 cycles, day 0) of the same compound?
Answer: 70 ± 4 mm^3

Question: What about the Tumor volume (Group 7, 1 mpk SC qd Mon-Fri x4 cycles, day 2) of the same compound?
Answer: 91 ± 9 mm^3

Question: And the Tumor volume (Group 7, 1 mpk SC qd Mon-Fri x4 cycles, day 4)?
Answer: 83 ± 9 mm^3

Question: What about the Tumor volume (Group 7, 1 mpk SC qd Mon-Fri x4 cycles, day 7) of the same compound?
Answer: 201 ± 26 mm^3

Question: And the Tumor volume (Group 7, 1 mpk SC qd Mon-Fri x4 cycles, day 9)?
Answer: 181 ± 18 mm^3

Question: What about the T/C [2] of the same compound?
Answer: 13.66%

Question: And the TGI [2]?
Answer: 92.34%

Question: What about the Tumor volume [2] of the same compound?
Answer: 152 ± 10 mm^3

Question: What about the Tumor volume (Group 7, 1 mpk SC qd Mon-Fri x4 cycles, day 14) of the same compound?
Answer: 293 ± 60 mm^3

Question: What about the Tumor volume (Group 7, 1 mpk SC qd Mon-Fri x4 cycles, day 16) of the same compound?
Answer: 298 ± 60 mm^3

Question: What about the Tumor volume (Group 7, 1 mpk SC qd Mon-Fri x4 cycles, day 18) of the same compound?
Answer: 400 ± 79 mm^3

Question: And the Tumor volume (Group 7, 1 mpk SC qd Mon-Fri x4 cycles, day 21)?
Answer: 644 ± 160 mm^3

Question: And the Tumor volume (Group 7, 1 mpk SC qd Mon-Fri x4 cycles, day 23)?
Answer: 975 ± 238 mm^3

Question: What about the ILS [3] of the same compound?
Answer: 170.0%

Question: What about the MST [3] of the same compound?
Answer: 40.5 days

Question: What about the “RTV at day 11” value [3] of the same compound?
Answer: 0.85 ± 0.11

Question: What about the “Tumor Size at day 11” value [3] of the same compound?
Answer: 39 ± 5 mm^3

Question: What about the Tumor volume (Group 8, 3 mpk SC qd Mon-Fri x4 cycles, day 0) of the same compound?
Answer: 70 ± 5 mm^3

Question: And the Tumor volume (Group 8, 3 mpk SC qd Mon-Fri x4 cycles, day 2)?
Answer: 88 ± 7 mm^3

Question: And the Tumor volume (Group 8, 3 mpk SC qd Mon-Fri x4 cycles, day 4)?
Answer: 59 ± 9 mm^3

Question: What about the Tumor volume (Group 8, 3 mpk SC qd Mon-Fri x4 cycles, day 7) of the same compound?
Answer: 57 ± 14 mm^3

Question: And the Tumor volume (Group 8, 3 mpk SC qd Mon-Fri x4 cycles, day 9)?
Answer: 45 ± 6 mm^3

Question: What about the T/C [4] of the same compound?
Answer: 5.22%

Question: And the TGI [4]?
Answer: 101.21%

Question: What about the Tumor volume [4] of the same compound?
Answer: 39 ± 5 mm^3

Question: And the Tumor volume (Group 8, 3 mpk SC qd Mon-Fri x4 cycles, day 14)?
Answer: 41 ± 7 mm^3

Question: What about the Tumor volume (Group 8, 3 mpk SC qd Mon-Fri x4 cycles, day 16) of the same compound?
Answer: 47 ± 7 mm^3

Question: And the Tumor volume (Group 8, 3 mpk SC qd Mon-Fri x4 cycles, day 18)?
Answer: 22 ± 4 mm^3

Question: And the Tumor volume (Group 8, 3 mpk SC qd Mon-Fri x4 cycles, day 21)?
Answer: 29 ± 3 mm^3

Question: What about the Tumor volume (Group 8, 3 mpk SC qd Mon-Fri x4 cycles, day 23) of the same compound?
Answer: 26 ± 2 mm^3

Question: And the Tumor volume (Group 8, 3 mpk SC qd Mon-Fri x4 cycles, day 25)?
Answer: 23 ± 4 mm^3

Question: And the Tumor volume (Group 8, 3 mpk SC qd Mon-Fri x4 cycles, day 28)?
Answer: 22 ± 4 mm^3

Question: And the Tumor volume (Group 8, 3 mpk SC qd Mon-Fri x4 cycles, day 30)?
Answer: 52 ± 8 mm^3

Question: What about the Tumor volume (Group 8, 3 mpk SC qd Mon-Fri x4 cycles, day 32) of the same compound?
Answer: 213 ± 47 mm^3

Question: What about the Tumor volume (Group 8, 3 mpk SC qd Mon-Fri x4 cycles, day 35) of the same compound?
Answer: 351 ± 61 mm^3

Question: And the Tumor volume (Group 8, 3 mpk SC qd Mon-Fri x4 cycles, day 37)?
Answer: 692 ± 129 mm^3

Question: And the ILS [5]?
Answer: 180.0%

Question: What about the MST [5] of the same compound?
Answer: 42 days

Question: What about the “RTV at day 11” value [5] of the same compound?
Answer: 0.56 ± 0.07

Question: And the “Tumor Size at day 11” value [5]?
Answer: 39 ± 5 mm^3

Question: And the Tumor volume (Group 9, 9 mpk SC qd Mon-Fri x4 cycles, day 0)?
Answer: 71 ± 5 mm^3

Question: What about the Tumor volume (Group 9, 9 mpk SC qd Mon-Fri x4 cycles, day 2) of the same compound?
Answer: 88 ± 7 mm^3

Question: And the Tumor volume (Group 9, 9 mpk SC qd Mon-Fri x4 cycles, day 4)?
Answer: 59 ± 9 mm^3

Question: What about the Tumor volume (Group 9, 9 mpk SC qd Mon-Fri x4 cycles, day 7) of the same compound?
Answer: 57 ± 14 mm^3

Question: And the Tumor volume (Group 9, 9 mpk SC qd Mon-Fri x4 cycles, day 9)?
Answer: 45 ± 6 mm^3

Question: What about the T/C [6] of the same compound?
Answer: 3.45%

Question: What about the TGI [6] of the same compound?
Answer: 102.98%

Question: And the Tumor volume [6]?
Answer: 39 ± 5 mm^3

Question: And the Tumor volume (Group 9, 9 mpk SC qd Mon-Fri x4 cycles, day 14)?
Answer: 41 ± 7 mm^3

Question: And the Tumor volume (Group 9, 9 mpk SC qd Mon-Fri x4 cycles, day 16)?
Answer: 47 ± 7 mm^3

Question: What about the Tumor volume (Group 9, 9 mpk SC qd Mon-Fri x4 cycles, day 18) of the same compound?
Answer: 22 ± 4 mm^3

Question: And the Tumor volume (Group 9, 9 mpk SC qd Mon-Fri x4 cycles, day 21)?
Answer: 29 ± 3 mm^3

Question: And the Tumor volume (Group 9, 9 mpk SC qd Mon-Fri x4 cycles, day 23)?
Answer: 26 ± 2 mm^3

Question: And the Tumor volume (Group 9, 9 mpk SC qd Mon-Fri x4 cycles, day 25)?
Answer: 23 ± 4 mm^3

Question: What about the Tumor volume (Group 9, 9 mpk SC qd Mon-Fri x4 cycles, day 28) of the same compound?
Answer: 22 ± 4 mm^3

Question: And the Tumor volume (Group 9, 9 mpk SC qd Mon-Fri x4 cycles, day 30)?
Answer: 52 ± 8 mm^3

Question: And the Tumor volume (Group 9, 9 mpk SC qd Mon-Fri x4 cycles, day 32)?
Answer: 213 ± 47 mm^3

Question: And the Tumor volume (Group 9, 9 mpk SC qd Mon-Fri x4 cycles, day 35)?
Answer: 351 ± 61 mm^3

Question: What about the Tumor volume (Group 9, 9 mpk SC qd Mon-Fri x4 cycles, day 37) of the same compound?
Answer: 692 ± 129 mm^3

Question: And the Tumor volume (Group 9, 9 mpk SC qd Mon-Fri x4 cycles, day 39)?
Answer: 1235 ± 196 mm^3

Question: What about the Tumor volume (Group 9, 9 mpk SC qd Mon-Fri x4 cycles, day 42) of the same compound?
Answer: 2174 ± 275 mm^3

Question: And the ILS [7]?
Answer: 146.7%

Question: And the MST [7]?
Answer: 37 days

Question: And the Tumor volume (Group 10, 7 mpk IV tiw x4 cycles, day 0)?
Answer: 71 ± 5 mm^3

Question: What about the Tumor volume (Group 10, 7 mpk IV tiw x4 cycles, day 2) of the same compound?
Answer: 86 ± 5 mm^3

Question: What about the Tumor volume (Group 10, 7 mpk IV tiw x4 cycles, day 4) of the same compound?
Answer: 76 ± 7 mm^3

Question: What about the Tumor volume (Group 10, 7 mpk IV tiw x4 cycles, day 7) of the same compound?
Answer: 76 ± 8 mm^3

Question: And the Tumor volume (Group 10, 7 mpk IV tiw x4 cycles, day 9)?
Answer: 61 ± 7 mm^3

Question: And the Tumor volume (Group 10, 7 mpk IV tiw x4 cycles, day 11)?
Answer: 68 ± 13 mm^3

Question: What about the Tumor volume (Group 10, 7 mpk IV tiw x4 cycles, day 14) of the same compound?
Answer: 85 ± 16 mm^3

Question: What about the Tumor volume (Group 10, 7 mpk IV tiw x4 cycles, day 16) of the same compound?
Answer: 115 ± 21 mm^3

Question: What about the Tumor volume (Group 10, 7 mpk IV tiw x4 cycles, day 18) of the same compound?
Answer: 107 ± 21 mm^3

Question: And the Tumor volume (Group 10, 7 mpk IV tiw x4 cycles, day 21)?
Answer: 131 ± 21 mm^3

Question: What about the Tumor volume (Group 10, 7 mpk IV tiw x4 cycles, day 23) of the same compound?
Answer: 233 ± 46 mm^3

Question: And the Tumor volume (Group 10, 7 mpk IV tiw x4 cycles, day 25)?
Answer: 273 ± 59 mm^3

Question: And the Tumor volume (Group 10, 7 mpk IV tiw x4 cycles, day 28)?
Answer: 356 ± 103 mm^3

Question: And the Tumor volume (Group 10, 7 mpk IV tiw x4 cycles, day 30)?
Answer: 575 ± 121 mm^3

Question: And the Tumor volume (Group 10, 7 mpk IV tiw x4 cycles, day 32)?
Answer: 849 ± 134 mm^3

Question: And the Tumor volume (Group 10, 7 mpk IV tiw x4 cycles, day 35)?
Answer: 1688 ± 223 mm^3
